In paper PMC8286840, “Identifying SARS-CoV-2 antiviral compounds by screening for small molecule inhibitors of Nsp3 papain-like protease” (Biochemical Journal, 2021):
Where a name gives a salt, the structure may show the parent alone. Read-outs that look alike come from different tables or passages of the source.

How the values were obtained:
[1] = target: T1, SARS-CoV-2 PLpro (nsp3 1564–1878) (Severe acute respiratory syndrome coronavirus 2, UniProt P0DTD1); assay: biochemical; design: FRET-quenched peptide (Pro3) cleavage by PLpro, 10 min pre-incubation, slope over 20 min, normalised to no-compound control; conditions: low concentration screen, read-out: % of control remaining
[2] = target: T1, SARS-CoV-2 PLpro (nsp3 1564–1878); assay: biochemical; design: FRET-quenched peptide (Pro3) cleavage by PLpro, 10 min pre-incubation, slope over 20 min, normalised to no-compound control; conditions: high concentration screen, read-out: % of control remaining

SMILES: COc1ccccc1CN[C@H]1C2CCN(CC2)[C@H]1C(c1ccccc1)c1ccccc1 [CP-96345]
- remaining activity at 1.25 µM ([1]; Well no.=5867): 97.7%
- remaining activity at 3.75 µM ([2]; Well no.=5867): 96.7%

SMILES: C[C@@H]([C@@H](O)c1ccc(O)cc1)N1CCC(O)(c2ccccc2)CC1 [CP-101606 mesylate]
- remaining activity at 1.25 µM ([1]; Well no.=5955): 98.1%
- remaining activity at 3.75 µM ([2]; Well no.=5955): 98.9%

SMILES: COc1cc2ncnc(-n3nc(-c4ccccn4)nc3N)c2cc1OC [CP-466722]
- remaining activity at 1.25 µM ([1]; Well no.=5158): 103%
- remaining activity at 3.75 µM ([2]; Well no.=5158): 101%

SMILES: COCC(=O)NC/C=C/c1ccc2ncnc(Nc3ccc(Oc4ccc(C)nc4)c(C)c3)c2c1 [CP-724714]
- remaining activity at 1.25 µM ([1]; Well no.=2837): 103%
- remaining activity at 3.75 µM ([2]; Well no.=2837): 103%

SMILES: Clc1cccc(COc2cncc(N3CCNCC3)n2)c1 [CP-809101 (hydrochloride)]
- remaining activity at 1.25 µM ([1]; Well no.=7851): 95.1%
- remaining activity at 3.75 µM ([2]; Well no.=7851): 83.3%

SMILES: Cc1sc2c(c1C)C(c1ccc(Cl)cc1)=N[C@@H](CC(N)=O)c1nnc(C)n1-2 [CPI203]
- remaining activity at 1.25 µM ([1]; Well no.=5824): 99.9%
- remaining activity at 3.75 µM ([2]; Well no.=5824): 98%

SMILES: Cc1ccc(-c2nc(N)nc3c2nnn3Cc2cccc(CO[C@H]3CCOC3)n2)o1 [CPI-444]
- remaining activity at 1.25 µM ([1]; Well no.=8549): 105%
- remaining activity at 3.75 µM ([2]; Well no.=8549): 97%

SMILES: O=C(O)CCCCC(CCSCc1ccccc1)SCc1ccccc1 (stereo not drawn) [CPI-613]
- remaining activity at 1.25 µM ([1]; Well no.=5083): 97.7%
- remaining activity at 3.75 µM ([2]; Well no.=5083): 88.8%

SMILES: O=C(Nc1ccc(Cl)cc1CN1C(=O)c2ccccc2C1=O)c1ccccc1O [CPPHA]
- remaining activity at 1.25 µM ([1]; Well no.=7243): 101%
- remaining activity at 3.75 µM ([2]; Well no.=7243): 97.3%

SMILES: CC[C@@H](CO)Nc1nc(NCc2ccc(-c3ccccn3)cc2)c2ncn(C(C)C)c2n1 [CR8, (S)-Isomer]
- remaining activity at 1.25 µM ([1]; Well no.=2343): 103%
- remaining activity at 3.75 µM ([2]; Well no.=2343): 102%

SMILES: CC1(C)CCC(NC(=O)[C@@H](N)CCC(=O)O)CC1 [CR 2249]
- remaining activity at 1.25 µM ([1]; Well no.=901): 108%
- remaining activity at 3.75 µM ([2]; Well no.=901): 105%

SMILES: Cc1cc(C)c(NC(=O)C[C@H](CC(=O)O)c2cccc3ccccc23)c(C(=O)N2CCC3(CCCC3)CC2)c1 [CR 2945]
- remaining activity at 1.25 µM ([1]; Well no.=1111): 105%
- remaining activity at 3.75 µM ([2]; Well no.=1111): 98.1%

SMILES: CC[C@@H](N)CNc1ccnc(-c2cc(-c3cnn(C)c3)ccc2O)n1 [CRT0066101 dihydrochloride]
- remaining activity at 1.25 µM ([1]; Well no.=6498): 89.1%
- remaining activity at 3.75 µM ([2]; Well no.=6498): 90.1%

SMILES: C#Cc1cccc(Nc2ncnc3cc(OC)c(OCCCCCCC(=O)NO)cc23)c1 [CUDC-101]
- remaining activity at 1.25 µM ([1]; Well no.=5097): 104%
- remaining activity at 3.75 µM ([2]; Well no.=5097): 108%

SMILES: CN[C@@H](C)C(=O)N[C@H](C(=O)N1CCC[C@H]1C(=O)Nc1sc(-c2ncco2)nc1-c1ccccc1)C1CCCCC1 [CUDC-427]
- remaining activity at 1.25 µM ([1]; Well no.=7062): 99.8%
- remaining activity at 3.75 µM ([2]; Well no.=7062): 92.1%

SMILES: CS(=O)(=O)Nc1ccc(-c2coc3cc(OCc4cccc(C(=O)O)c4)ccc3c2=O)cc1 [CVT-10216]
- remaining activity at 1.25 µM ([1]; Well no.=5513): 105%
- remaining activity at 3.75 µM ([2]; Well no.=5513): 108%

SMILES: O=C(c1ccc2c(c1)OCCO2)N1CCCCC1 [CX 546]
- remaining activity at 1.25 µM ([1]; Well no.=729): 103%
- remaining activity at 3.75 µM ([2]; Well no.=729): 99.5%

SMILES: Cc1cnc(CNC(=O)c2c(=O)c3ccc(N4CCCN(C)CC4)nc3n3c2sc2ccccc23)cn1 [CX-5461]
- remaining activity at 1.25 µM ([1]; Well no.=5340): 99.1%
- remaining activity at 3.75 µM ([2]; Well no.=5340): 102%

SMILES: CN1CCC(S(=O)(=O)c2c(Cl)ccc(NC(=O)Nc3cccc(F)c3Cl)c2O)CC1 [CXCR2-IN-1]
- remaining activity at 1.25 µM ([1]; Well no.=8705): 100%
- remaining activity at 3.75 µM ([2]; Well no.=8705): 98.8%

SMILES: CCc1ccn2ccnc2c1N1CCCN([C@@H](CC(N)=O)C2CCN(C(=O)[C@H]3C[C@@H]4CC[C@H]3O4)CC2)CC1 [CXCR7 modulator 2]
- remaining activity at 1.25 µM ([1]; Well no.=8557): 112%
- remaining activity at 3.75 µM ([2]; Well no.=8557): 108%

SMILES: Cc1nc(N)sc1-c1ccnc(Nc2ccc(N3CCOCC3)cc2)n1 [CYC-116]
- remaining activity at 1.25 µM ([1]; Well no.=2885): 103%
- remaining activity at 3.75 µM ([2]; Well no.=2885): 101%

SMILES: O=C(c1cc(C2CC2)on1)N(C1CCCCC1)C1CCCCC1 [CYM-5541]
- remaining activity at 1.25 µM ([1]; Well no.=6224): 97.7%
- remaining activity at 3.75 µM ([2]; Well no.=6224): 94.5%

SMILES: Cc1ccc(-c2c(-c3nn(C)c4ncnc(N5CC[C@H](N6CCCCC6)C5)c34)cnn2C)cc1 [CYP3cide]
- remaining activity at 1.25 µM ([1]; Well no.=5646): 95.6%
- remaining activity at 3.75 µM ([2]; Well no.=5646): 91.1%

SMILES: N#CCNC(=O)c1ccc(-c2ccnc(Nc3ccc(N4CCOCC4)cc3)n2)cc1 [CYT11387]
- remaining activity at 1.25 µM ([1]; Well no.=2753): 98.6%
- remaining activity at 3.75 µM ([2]; Well no.=2753): 99.6%

SMILES: CO[C@H]1C(=O)[C@]2(C)[C@@H](OC)C[C@H]3OC[C@@]3(OC(C)=O)[C@H]2[C@H](OC(=O)c2ccccc2)[C@]2(O)C[C@H](OC(=O)[C@H](O)[C@@H](NC(=O)OC(C)(C)C)c3ccccc3)C(C)=C1C2(C)C [Cabazitaxel (Jevtana)]
- remaining activity at 1.25 µM ([1]; Well no.=5263): 95.3%
- remaining activity at 3.75 µM ([2]; Well no.=5263): 92.6%

SMILES: C=CCN1C[C@H](C(=O)N(CCCN(C)C)C(=O)NCC)C[C@@H]2c3cccc4[nH]cc(c34)C[C@H]21 [Cabergoline]
- remaining activity at 1.25 µM ([1]; Well no.=1929): 105%
- remaining activity at 1.25 µM ([1]; Well no.=7179): 94.5%
- remaining activity at 3.75 µM ([2]; Well no.=1929): 105%
- remaining activity at 3.75 µM ([2]; Well no.=7179): 96.6%

SMILES: CC(=O)OC[C@@]1(O)C[C@@]23CC[C@@H]4c5ccoc5CC[C@@]4(C)[C@@H]2CC[C@@H]1C3 [Cafestol acetate]
- remaining activity at 1.25 µM ([1]; Well no.=3525): 96.8%
- remaining activity at 3.75 µM ([2]; Well no.=3525): 103%

SMILES: C[C@@]12CCc3occc3[C@H]1CC[C@@]13C[C@@H](CC[C@H]12)[C@@](O)(CO)C3 [Cafestol]
- remaining activity at 1.25 µM ([1]; Well no.=3523): 102%
- remaining activity at 3.75 µM ([2]; Well no.=3523): 96.8%

SMILES: O=C(/C=C/c1ccc(O)c(O)c1)OCCc1ccccc1 [Caffeic acid phenethyl ester]
- remaining activity at 1.25 µM ([1]; Well no.=140): 103%
- remaining activity at 3.75 µM ([2]; Well no.=140): 104%

SMILES: O=C(O)/C=C/c1ccc(O)c(O)c1 [Caffeic acid]
- remaining activity at 1.25 µM ([1]; Well no.=233): 99%
- remaining activity at 1.25 µM ([1]; Well no.=3957): 97%
- remaining activity at 1.25 µM ([1]; Well no.=7073): 101%
- remaining activity at 3.75 µM ([2]; Well no.=233): 99.3%
- remaining activity at 3.75 µM ([2]; Well no.=3125): 104%
- remaining activity at 3.75 µM ([2]; Well no.=3957): 96.7%
- remaining activity at 3.75 µM ([2]; Well no.=7073): 95.2%

SMILES: Cn1c(=O)c2c(ncn2C)n(C)c1=O [Caffeine]
- remaining activity at 1.25 µM ([1]; Well no.=329): 95.2%
- remaining activity at 1.25 µM ([1]; Well no.=1737): 105%
- remaining activity at 1.25 µM ([1]; Well no.=3344): 89.5%
- remaining activity at 3.75 µM ([2]; Well no.=329): 95.9%
- remaining activity at 3.75 µM ([2]; Well no.=1737): 103%
- remaining activity at 3.75 µM ([2]; Well no.=3344): 91.8%

SMILES: C=C1CC[C@H](O)C/C1=C/C=C1\CCC[C@]2(C)[C@@H]([C@H](C)CCCC(C)(C)O)CC[C@@H]12 [Calcifediol]
- remaining activity at 1.25 µM ([1]; Well no.=1821): 90.8%
- remaining activity at 3.75 µM ([2]; Well no.=1821): 93.1%
